In general, Ki refers to a dissociation constant, usually derived from enzyme kinetics or from competition with a known ligand. A word on the IC50: it is the point on the concentration scale where inhibition reaches its midpoint. Read a high IC50 as a need for much substance.

In one data set the target is c-Src tyrosine kinase. As to conditions: cited from earlier work.
In data set [1] the test system is subcutaneous NB animal model. As to conditions: oral administration; cited from earlier work.
Details of data set [2]: method as in PMID 31248184. As to conditions: 25 mg/kg, free compound in vivo; cited from earlier work.
For data set [3] the following is noted: cited from earlier work.
Another data set relates to HTLA-230. The experiment in a line: MTT cytotoxicity assay. In kind it is cell-based. The following applies: Homo sapiens, 24 h exposure, 96 h total, ± S.D. As for the experimental part:
(§1) Cytotoxicity experiments were performed to evaluate the effectiveness of Si306, either free (dissolved in DMSO) or encapsulated into untargeted and GD2-targeted liposomes. Briefly, IMR-32, HTLA-230 and SH-SY5Y cells were seeded in 96-well plates (8 × 10^3 cells/well). Human fibroblasts were used as GD2-negative healthy control cells (5 × 10^3 cells/well). The day after seeding, cells were incubated with increasing concentration of Si306 (0.1, 1.0, 10.0 and, 100.0 μM) either free or liposomes-encapsulated, for 24 h at 37 °C. Cells were then washed twice with PBS before replacing them with fresh complete medium and incubating for an additional 72 h (total incubation time equal to 96 h). At the end of the incubation, the MTT (Sigma) assay was performed. The tetrazolium dye was added, then plates were incubated for 3–4 h at 37 °C; formazan crystals were then dissolved in acid isopropanol, and then the optical density of the stained solution was quantified by the use of a Multiskan™ FC Microplate Photometer (Thermo Fisher Scientific Italia, Monza, Italy) at the dual wavelengths of 570 and 650 nm.
(Tetrazolium dyes change colour on reduction, which living cells bring about.)

A further data set relates to SH-SY5Y. Put plainly: MTT cytotoxicity assay. In kind it is cell-based. The following applies: Homo sapiens, 24 h exposure, 96 h total, ± S.D. As for the experimental part: as §1
The subject of the next data set is IMR-32. Put plainly: MTT cytotoxicity assay. In kind it is cell-based. The following applies: Homo sapiens, 24 h exposure, 96 h total, ± S.D. As for the experimental part:
as §1

In the next data set the test system is non-tumoral cells. As to conditions: cited from earlier work.

With `ClC(Cn1ncc2c(Nc3cccc(Br)c3)nc(SCCN3CCOCC3)nc21)c1ccccc1` (centres unmarked) [Si306], the Ki on c-Src tyrosine kinase is 130 nM. In addition, in data set [1], the tumor growth result is listed as “delay of tumor growth”. In addition, the signs of toxicity result in data set [2] is given as “without signs of toxicity”. Moreover, in data set [3], the water solubility entry is “low water solubility”. The IC50 stood at 2900 ± 300 nM in the data set with HTLA-230, 19.6 ± 0.7 µM with SH-SY5Y and 5.9 ± 1.4 µM with IMR-32. The “activity in non-tumoral cells” value with non-tumoral cells was “negligible activity”.

The record behind these values is paper PMC8945814, “The Pyrazolo[3,4-d]Pyrimidine Derivative Si306 Encapsulated into Anti-GD2-Immunoliposomes as Therapeutic Treatment of Neuroblastoma” (Biomedicines, 2022).
